Results from patent US11034751B1, “Methods and compositions for treating cancer using serotonin receptor inhibitors” (Flagship Pioneering Innovations V, Inc., priority 2018, dated 2021).

Test system: macrophages
Assay: IL8 secretion by macrophages incubated with serotonin receptor agonists (bead-based immunoassay)
Format: cell-based
Conditions: human monocyte-derived macrophages (M-CSF)
Method: CD14+ monocytes were isolated from human PBMCs using negative magnetic bead selection (Stemcell Technologies) on day 0. Cells were cultured with M-CSF to differentiate monocytes to macrophages. On day 6, cells were treated with LP44 (high affinity 5-HT7 agonist), BW 723C86 hydrochloride (5-HT2B agonist), MK 212 hydrochloride (5-HT2C agonist) (Sigma-Aldrich), at concentrations 1 μM and 10 μM overnight. Supernatant was collected and bead-based immunoassays (Biolegend) were performed to detect changes in cytokine secretion.
Across multiple human donors, secretion of the inflammatory cytokine, IL8, by macrophages was decreased after addition of each of the HTR2B, HTR2C, and HTR7 agonists, as show in Table 18 below.

CC(N)Cc1c[nH]c2ccc(OCc3cccs3)cc12.Cl (stereo not drawn) [BW723086]
Fold change of IL-8 (Normalized to Macs + LPS with no compound treatment) (1 μM overnight): 0.670 | Fold change of IL-8 (Normalized to Macs + LPS with no compound treatment) (10 μM overnight): 0.508

CSc1ccccc1N1CCN(CCCCCC(=O)NC2CCCc3ccccc32)CC1 (stereo not drawn) [LP44]
Fold change of IL-8 (Normalized to Macs + LPS with no compound treatment) (1 μM overnight): 0.340 | Fold change of IL-8 (Normalized to Macs + LPS with no compound treatment) (10 μM overnight): 0.427

Clc1cncc(N2CCNCC2)n1 [MK212]
Fold change of IL-8 (Normalized to Macs + LPS with no compound treatment) (1 μM overnight): 0.502 | Fold change of IL-8 (Normalized to Macs + LPS with no compound treatment) (10 μM overnight): 0.484
